How the values were obtained:
Assay in all cases: combination Emax (second highest fraction inhibited in the dose matrix, 72 h); higher = more inhibition; extreme values may be limits of the assay
[1] = test system: EMC-BAC-2 (Non-Small Cell Lung Carcinoma)
Summary of the method: (§1)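 After 24 hours at 37°C and 5% CO2 in 1536-well plates, cells in DMEM/F12 or RPMI plus 10% FBS received two-drug dose matrices for 72 hours. Viability came from CellTiter-Glo 2.0 luminescence and was scaled as inhibition, anchored at 0 by vehicle wells and at 1 by blank wells. Combination Emax is taken as the second-highest inhibition in the matrix, and Bliss excess as the observed combination effect less EA + EB − EA·EB, with EA and EB the single-agent effects.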

EW-18 (Ewing's Sarcoma) = test system: EW-18 (Ewing's Sarcoma)
Summary of the method: as §1

EW-3 (Ewing's Sarcoma) = test system: EW-3 (Ewing's Sarcoma)
Summary of the method: as §1

[2] = test system: HC-1 (Other Blood Carcinomas)
Summary of the method: as §1

[3] = test system: JHH-7 (Hepatocellular Carcinoma)
Summary of the method: as §1

[4] = test system: KYSE-150 (Esophageal Squamous Cell Carcinoma)
Summary of the method: as §1

[5] = test system: LC4-1 (B-Lymphoblastic Leukemia)
Summary of the method: as §1

[6] = test system: LOU-NH91 (Squamous Cell Lung Carcinoma)
Summary of the method: as §1

[7] = test system: NCI-H1573 (Lung Adenocarcinoma)
Summary of the method: as §1

[8] = test system: NCI-H322M (Lung Adenocarcinoma)
Summary of the method: as §1

[9] = test system: OCUB-M (Breast Carcinoma)
Summary of the method: as §1

[10] = test system: OVISE (Ovarian Carcinoma)
Summary of the method: as §1

SMILES	combination Emax [1]	combination Emax (EW-18 (Ewing's Sarcoma))	combination Emax (EW-3 (Ewing's Sarcoma))	combination Emax [2]	combination Emax [3]	combination Emax [4]	combination Emax [5]	combination Emax [6]	combination Emax [7]	combination Emax [8]	combination Emax [9]	combination Emax [10]
CN(C)CCCOc1ccc(-c2ccc3ncc4c(c3c2)n(C2CCOCC2)c(=O)n4C)cn1 [AZD0156] + CCN(CCO)CCCOc1ccc2c(Nc3cc(CC(=O)Nc4cccc(F)c4)[nH]n3)ncnc2c1 [AZD2811] (first compound max 1 µM, 7x7, partner max 1 µM)	0.253	0.678	0.34	0.379	0.143	0.422	0.808	0.208	0.106	0.123	0.727	0.113
COc1cccc(OCCCN)c1-c1cc(Nc2cnc(C#N)cn2)n[nH]1 [Prexasertib] + CN(C)CCCOc1ccc(-c2ccc3ncc4c(c3c2)n(C2CCOCC2)c(=O)n4C)cn1 [AZD0156] (first compound max 1 µM, 7x7, partner max 1 µM)	0.591	0.761	0.683	1	0.411	0.365	0.978	0.445	0.652	0.982	0.574	0.796
COc1cccc(OCCCN)c1-c1cc(Nc2cnc(C#N)cn2)n[nH]1 [Prexasertib] + O=C(c1cc(Cc2n[nH]c(=O)c3ccccc23)ccc1F)N1CCN(C(=O)C2CC2)CC1 [Olaparib] (first compound max 1 µM, 7x7, partner max 10 µM)	0.44	0.764	0.815	1	0.442	0.61	0.982	0.573	0.608	0.83	0.701	0.689
CCN(CCO)CCCOc1ccc2c(Nc3cc(CC(=O)Nc4cccc(F)c4)[nH]n3)ncnc2c1 [AZD2811] + O=C(c1cc(Cc2n[nH]c(=O)c3ccccc23)ccc1F)N1CCN(C(=O)C2CC2)CC1 [Olaparib] (first compound max 1 µM, 7x7, partner max 10 µM)	0.31	0.667	0.675	0.681	0.218	0.515	0.854	0.332	0.152	0.182	0.805	0.272
C[C@@H]1COCCN1c1cc(C2([S@](C)(=N)=O)CC2)nc(-c2ccnc3[nH]ccc23)n1 [AZD6738] + O=C(c1cc(Cc2n[nH]c(=O)c3ccccc23)ccc1F)N1CCN(C(=O)C2CC2)CC1 [Olaparib] (first compound max 10 µM, 7x7, partner max 10 µM)	0.446	0.666	0.962	0.76	0.339	0.567	0.952	0.236	0.531	0.697	0.634	0.663
C=CCn1c(=O)c2cnc(Nc3ccc(N4CCN(C)CC4)cc3)nc2n1-c1cccc(C(C)(C)O)n1 [AZD1775] + C[C@@H]1COCCN1C2=NC(=NC(=C2)C3(CC3)[S@](=N)(=O)C)C4=C5C=CNC5=NC=C4 [AZD6738] (first compound max 1 µM, partner max 10 µM)	0.571	0.66	0.804	0.971	0.642	0.756	0.952	0.54	0.694	0.871	0.799	0.777
COc1cc2c(cc1OCCCCCOc1cc3c(cc1OC)C(=O)N1C=C(C)C[C@H]1C=N3)N=C[C@@H]1CC(C)=CN1C2=O [SG3199] + O=C(c1cc(Cc2n[nH]c(=O)c3ccccc23)ccc1F)N1CCN(C(=O)C2CC2)CC1 [Olaparib] (first compound max 0.001 µM, 7x7, partner max 10 µM)	0.169	0.0839	0.634	0.498	0.108	0.183	0.528	0.175	0.0928	0.256	0.232	0.0965
Cc1cc2ncnn2cc1Nc1ncc2c(n1)n(C1CCOCC1)c(=O)n2C [AZD7648] + CCN(CCO)CCCOc1ccc2c(Nc3cc(CC(=O)Nc4cccc(F)c4)[nH]n3)ncnc2c1 [AZD2811] (first compound max 10 µM, 7x7, partner max 1 µM)	0.349	0.68	0.397	0.737	0.296	0.658	0.839	0.37	0.214	0.352	0.764	0.308
Cc1cc2ncnn2cc1Nc1ncc2c(n1)n(C1CCOCC1)c(=O)n2C [AZD7648] + C[C@@H]1COCCN1C2=NC(=NC(=C2)C3(CC3)[S@](=N)(=O)C)C4=C5C=CNC5=NC=C4 [AZD6738] (first compound max 10 µM, 7x7, partner max 10 µM)	0.513	0.636	0.755	0.616	0.369	0.561	0.937	0.295	0.592	0.944	0.49	0.666
CN(C)CCCOc1ccc(-c2ccc3ncc4c(c3c2)n(C2CCOCC2)c(=O)n4C)cn1 [AZD0156] + C=CCn1c(=O)c2cnc(Nc3ccc(N4CCN(C)CC4)cc3)nc2n1-c1cccc(C(C)(C)O)n1 [AZD1775] (first compound max 1 µM, partner max 1 µM)	0.304	0.556	0.357	0.994	0.136	0.448	0.916	0.371	0.159	0.77	0.209	0.7
COc1cccc(OCCCN)c1-c1cc(Nc2cnc(C#N)cn2)n[nH]1 [Prexasertib] + C[C@@H]1COCCN1C2=NC(=NC(=C2)C3(CC3)[S@](=N)(=O)C)C4=C5C=CNC5=NC=C4 [AZD6738] (first compound max 1 µM, 7x7, partner max 10 µM)	0.497	0.745	0.819	1	0.4	0.621	0.984	0.461	0.669	0.994	0.585	0.716
COc1cccc(OCCCN)c1-c1cc(Nc2cnc(C#N)cn2)n[nH]1 [Prexasertib] + Cc1cc2ncnn2cc1Nc1ncc2c(n1)n(C1CCOCC1)c(=O)n2C [AZD7648] (first compound max 1 µM, 7x7, partner max 10 µM)	0.538	0.742	0.736	1	0.458	0.513	0.97	0.44	0.668	0.979	0.595	0.716
CCN(CCO)CCCOc1ccc2c(Nc3cc(CC(=O)Nc4cccc(F)c4)[nH]n3)ncnc2c1 [AZD2811] + C=CCn1c(=O)c2cnc(Nc3ccc(N4CCN(C)CC4)cc3)nc2n1-c1cccc(C(C)(C)O)n1 [AZD1775] (first compound max 1 µM, partner max 1 µM)	0.223	0.635	0.402	0.983	0.162	0.533	0.896	0.383	0.178	0.801	0.779	0.571
COc1cccc2c1C(=O)c1c(O)c3c(c(O)c1C2=O)C[C@@](O)(C(=O)CO)C[C@@H]3O[C@H]1C[C@H](N)[C@H](O)[C@H](C)O1 [Doxorubicin] + Cc1cc2ncnn2cc1Nc1ncc2c(n1)n(C1CCOCC1)c(=O)n2C [AZD7648] (first compound max 1 µM, 7x7, partner max 10 µM)	0.829	0.754	0.788	0.975	0.411	0.958	1	0.782	0.255	0.792	0.943	0.554
CN(C)CCCOc1ccc(-c2ccc3ncc4c(c3c2)n(C2CCOCC2)c(=O)n4C)cn1 [AZD0156] + C[C@@H]1COCCN1C2=NC(=NC(=C2)C3(CC3)[S@](=N)(=O)C)C4=C5C=CNC5=NC=C4 [AZD6738] (first compound max 1 µM, 7x7, partner max 10 µM)	0.676	0.727	0.751	0.77	0.32	0.589	0.908	0.236	0.58	0.922	0.494	0.759
COc1cccc(OCCCN)c1-c1cc(Nc2cnc(C#N)cn2)n[nH]1 [Prexasertib] + C=CCn1c(=O)c2cnc(Nc3ccc(N4CCN(C)CC4)cc3)nc2n1-c1cccc(C(C)(C)O)n1 [AZD1775] (first compound max 1 µM, partner max 1 µM)	0.608	0.723	0.732	1	0.765	0.866	0.983	0.716	0.713	0.974	0.954	0.763
Cc1cc2ncnn2cc1Nc1ncc2c(n1)n(C1CCOCC1)c(=O)n2C [AZD7648] + C=CCn1c(=O)c2cnc(Nc3ccc(N4CCN(C)CC4)cc3)nc2n1-c1cccc(C(C)(C)O)n1 [AZD1775] (first compound max 10 µM, partner max 1 µM)	0.392	0.553	0.329	0.992	0.392	0.643	0.898	0.466	0.308	0.923	0.448	0.635
Cc1cc2ncnn2cc1Nc1ncc2c(n1)n(C1CCOCC1)c(=O)n2C [AZD7648] + CN(C)CCCOc1ccc(-c2ccc3ncc4c(c3c2)n(C2CCOCC2)c(=O)n4C)cn1 [AZD0156] (first compound max 10 µM, 7x7, partner max 1 µM)	0.311	0.391	0.386	0.386	0.177	0.532	0.42	0.279	0.15	0.368	0.4	0.366
CCN(CCO)CCCOc1ccc2c(Nc3cc(CC(=O)Nc4cccc(F)c4)[nH]n3)ncnc2c1 [AZD2811] + C[C@@H]1COCCN1C2=NC(=NC(=C2)C3(CC3)[S@](=N)(=O)C)C4=C5C=CNC5=NC=C4 [AZD6738] (first compound max 1 µM, 7x7, partner max 10 µM)	0.459	0.743	0.724	0.789	0.275	0.533	0.97	0.27	0.479	0.852	0.748	0.663

Source: the supplement of paper PMC11061612
